Laboratory results published in patent US20260232767A1, “INTERLEUKIN-23 RECEPTOR ANTAGONIST PEPTIDES FOR USE IN THE TREATMENT OF PSORIASIS” (Janssen Pharmaceutica NV, priority 2023, published 2026).

Test system: subjects with moderate-to-severe plaque psoriasis
Test: Safety, adverse events, Example 2 through Week 56
Format: in vivo, human
Excerpt: The LTE safety analysis was based on randomized participants in Example who entered the present long-term extension study and received at least one dose of study intervention (including a partial dose) during the study period.

[1] = 25 mg QD, Week 16 through Week 56

CC(=O)NCCCC[C@@H]1NC(=O)[C@H](Cc2c[nH]c3c(C)cccc23)NC(=O)[C@H]([C@@H](C)O)NC(=O)[C@H](CC(N)=O)NC(=O)[C@@H](NC(C)=O)C(C)(C)SSC(C)(C)[C@@H](C(=O)N[C@@H](Cc2ccc(OCCN)cc2)C(=O)N[C@@H](Cc2ccc3ccccc3c2)C(=O)NC2(C(=O)N[C@@H](CCC(=O)O)C(=O)N[C@@H](CC(N)=O)C(=O)N[C@@H](Cc3cccnc3)C(=O)N(C)CC(N)=O)CCOCC2)NC1=O [IL-23 receptor antagonist peptide, Ac-[Pen]*-N-T-[W(7-Me)]-[Lys(Ac)]-[Pen]*-Phe[4-(2-aminoethoxy)]-[2-Nal]-[THP]-E-N-[3-Pal]-Sarc-NH2 (*[Pen]-[Pen]* formdisulfidebond)]
Ketonuria: number of subjects (25 mg BID, through Week 56): 0
Leukocyturia: number of subjects (25 mg BID, through Week 56): 0
Leukopenia: number of subjects (25 mg BID, through Week 56): 0
Libido decreased: number of subjects (25 mg BID, through Week 56): 0
Liver disorder: number of subjects (25 mg BID, through Week 56): 0
Lymphopenia: number of subjects (25 mg BID, through Week 56): 0
Menopause: number of subjects (25 mg BID, through Week 56): 0
Metabolism and nutrition disorders: % of subjects (25 mg BID, through Week 56): (7.3%)
Metabolism and nutrition disorders: number of subjects (25 mg BID, through Week 56): 3
Neoplasms benign, malignant and unspecified (incl cysts and polyps): % of subjects (25 mg BID, through Week 56): (2.4%)
Neoplasms benign, malignant and unspecified (incl cysts and polyps): number of subjects (25 mg BID, through Week 56): 1
Nephrolithiasis: number of subjects (25 mg BID, through Week 56): 0
Neutropenia: number of subjects (25 mg BID, through Week 56): 0
Night sweats: number of subjects (25 mg BID, through Week 56): 0
Non-cardiac chest pain: number of subjects (25 mg BID, through Week 56): 0
Ocular cyst: number of subjects (25 mg BID, through Week 56): 0
Oedema peripheral: number of subjects (25 mg BID, through Week 56): 0
Oropharyngeal pain: number of subjects (25 mg BID, through Week 56): 0
Procedural pain: number of subjects (25 mg BID, through Week 56): 0
Productive cough: number of subjects (25 mg BID, through Week 56): 0
Proteinuria: number of subjects (25 mg BID, through Week 56): 0
Pruritus: number of subjects (25 mg BID, through Week 56): 0
Psoriasis: % of subjects (25 mg BID, through Week 56): (2.4%)
Psoriasis: number of subjects (25 mg BID, through Week 56): 1
Psychiatric disorders: % of subjects (25 mg BID, through Week 56): (2.4%)
Psychiatric disorders: number of subjects (25 mg BID, through Week 56): 1
Pyrexia: number of subjects (25 mg BID, through Week 56): 0
Rash pruritic: number of subjects (25 mg BID, through Week 56): 0
Renal and urinary disorders: number of subjects (25 mg BID, through Week 56): 0
Renal mass: number of subjects (25 mg BID, through Week 56): 0
Respiratory, thoracic and mediastinal disorders: % of subjects (25 mg BID, through Week 56): (2.4%)
Respiratory, thoracic and mediastinal disorders: number of subjects (25 mg BID, through Week 56): 1
Retinal vein occlusion: number of subjects (25 mg BID, through Week 56): 0
Rhinorrhoea: number of subjects (25 mg BID, through Week 56): 0
Seasonal allergy: number of subjects (25 mg BID, through Week 56): 0
Skin and subcutaneous tissue disorders: % of subjects (25 mg BID, through Week 56): (4.9%)
Skin and subcutaneous tissue disorders: number of subjects (25 mg BID, through Week 56): 2
Skin laceration: number of subjects (25 mg BID, through Week 56): 0
Skin papilloma: number of subjects (25 mg BID, through Week 56): 0
Social circumstances: number of subjects (25 mg BID, through Week 56): 0
Steatohepatitis: number of subjects (25 mg BID, through Week 56): 0
Subjects with AE leading to discontinuation: Abdominal discomfort (25 mg BID, through Week 56): 0
Subjects with AE leading to discontinuation: Abdominal pain (25 mg BID, through Week 56): 0
Subjects with AE leading to discontinuation: Alanine aminotransferase increased (25 mg BID, through Week 56): 0
Subjects with AE leading to discontinuation: Aspartate aminotransferase increased (25 mg BID, through Week 56): 0
Subjects with AE leading to discontinuation: Ear and labyrinth disorders (25 mg BID, through Week 56): 0
Subjects with AE leading to discontinuation: Gamma-glutamyltransferase increased (25 mg BID, through Week 56): 0
Subjects with AE leading to discontinuation: Investigations (25 mg BID, through Week 56): 0
Subjects with AE leading to discontinuation: Nausea (25 mg BID, through Week 56): 0
Subjects with AE leading to discontinuation: Suicide attempt (25 mg BID, through Week 56): 0
Subjects with AE leading to discontinuation: Transaminases increased (25 mg BID, through Week 56): 0
Subjects with AE leading to discontinuation: Vertigo (25 mg BID, through Week 56): 0
Subjects with AE leading to discontinuation: Vomiting (25 mg BID, through Week 56): 0
Subjects with AE leading to discontinuation: Weight increased (25 mg BID, through Week 56): 0
Subjects with COVID-19 associated AE: SARS-CoV-2 test positive (25 mg BID, through Week 56): 0
Subjects with treatment-emergent AE: Arthralgia (25 mg BID, through Week 56): 0
Subjects with treatment-emergent AE: Cough (25 mg BID, through Week 56): 0
Subjects with treatment-emergent AE: Nasopharyngitis (25 mg BID, through Week 56): 8
Subjects with treatment-emergent serious AE: COVID-19 (25 mg BID, through Week 56): 0
Subjects with treatment-emergent serious AE: Cerebrovascular accident (25 mg BID, through Week 56): 0
Subjects with treatment-emergent serious AE: Coronary artery disease (25 mg BID, through Week 56): 0
Subjects with treatment-emergent serious AE: Diverticulitis (25 mg BID, through Week 56): 0
Subjects with treatment-emergent serious AE: Foot deformity (25 mg BID, through Week 56): 0
Subjects with treatment-emergent serious AE: General disorders and administration site conditions (25 mg BID, through Week 56): 0
Subjects with treatment-emergent serious AE: Infected cyst (25 mg BID, through Week 56): 0
Subjects with treatment-emergent serious AE: Infections and infestations (25 mg BID, through Week 56): 0
Subjects with treatment-emergent serious AE: Intervertebral disc protrusion (25 mg BID, through Week 56): 0
Subjects with treatment-emergent serious AE: Musculoskeletal and connective tissue disorders (25 mg BID, through Week 56): 0
Subjects with treatment-emergent serious AE: Neoplasms benign, malignant and unspecified (incl cysts and polyps) (25 mg BID, through Week 56): 0
Subjects with treatment-emergent serious AE: Nervous system disorders (25 mg BID, through Week 56): 0
Subjects with treatment-emergent serious AE: Non-cardiac chest pain (25 mg BID, through Week 56): 0
Subjects with treatment-emergent serious AE: Psychiatric disorders (25 mg BID, through Week 56): 0
Subjects with treatment-emergent serious AE: Suicide attempt (25 mg BID, through Week 56): 0
Subjects with treatment-emergent serious AE: Uterine leiomyoma (25 mg BID, through Week 56): 0
Suicide attempt: number of subjects (25 mg BID, through Week 56): 0
Sunburn: % of subjects (25 mg BID, through Week 56): (2.4%)
Sunburn: number of subjects (25 mg BID, through Week 56): 1
Thrombocytopenia: number of subjects (25 mg BID, through Week 56): 0
Thrombocytosis: number of subjects (25 mg BID, through Week 56): 0
Tonsillar hypertrophy: % of subjects (25 mg BID, through Week 56): (2.4%)
Tonsillar hypertrophy: number of subjects (25 mg BID, through Week 56): 1
Tooth fracture: number of subjects (25 mg BID, through Week 56): 0
Type 2 diabetes mellitus: number of subjects (25 mg BID, through Week 56): 0
Urinary tract disorder: number of subjects (25 mg BID, through Week 56): 0
Uterine leiomyoma: number of subjects (25 mg BID, through Week 56): 0
Vascular disorders: % of subjects (25 mg BID, through Week 56): (4.9%)
Vascular disorders: number of subjects (25 mg BID, through Week 56): 2
Ventricular dysfunction: % of subjects (25 mg BID, through Week 56): (2.4%)
Ventricular dysfunction: number of subjects (25 mg BID, through Week 56): 1
Vertigo: number of subjects (25 mg BID, through Week 56): 0
Vitamin D deficiency: % of subjects (25 mg BID, through Week 56): (2.4%)
Vitamin D deficiency: number of subjects (25 mg BID, through Week 56): 1
Number of subjects with treatment-emergent AE: Cholelithiasis [1]: 0
Number of subjects with treatment-emergent AE: Ear and labyrinth disorders [1]: 1
Number of subjects with treatment-emergent AE: Endocrine disorders [1]: 0
Number of subjects with treatment-emergent AE: Eye disorders [1]: 0
Number of subjects with treatment-emergent AE: Eyelid skin dryness [1]: 0
Number of subjects with treatment-emergent AE: Goiter [1]: 0
Number of subjects with treatment-emergent AE: Hepatobiliary disorders [1]: 0
Number of subjects with treatment-emergent AE: Hypertransaminasemia [1]: 0
Number of subjects with treatment-emergent AE: Immune system disorders [1]: 0
Number of subjects with treatment-emergent AE: Insomnia [1]: 0
Number of subjects with treatment-emergent AE: Ocular cyst [1]: 0
Number of subjects with treatment-emergent AE: Psychiatric disorders [1]: 0
Number of subjects with treatment-emergent AE: Retinal vein occlusion [1]: 0
Number of subjects with treatment-emergent AE: Seasonal allergy [1]: 0
Number of subjects with treatment-emergent AE: Vertigo [1]: 1
Subjects with treatment-emergent AE: Ear and labyrinth disorders (%) [1]: (2.9%)
Subjects with treatment-emergent AE: Vertigo (%) [1]: (2.9%)
Acrochordon: number of subjects (25 mg QD, through Week 56): 0
Actinic keratosis: number of subjects (25 mg QD, through Week 56): 0
Alopecia: % of subjects (25 mg QD, through Week 56): (2.3%)
Alopecia: number of subjects (25 mg QD, through Week 56): 1
Asthenia: number of subjects (25 mg QD, through Week 56): 0
Asthma: number of subjects (25 mg QD, through Week 56): 0
Atrioventricular block first degree: number of subjects (25 mg QD, through Week 56): 0
Basal cell carcinoma: number of subjects (25 mg QD, through Week 56): 0
Blood and lymphatic system disorders: % of subjects (25 mg QD, through Week 56): (2.3%)
Blood and lymphatic system disorders: number of subjects (25 mg QD, through Week 56): 1
Bronchitis chronic: number of subjects (25 mg QD, through Week 56): 0
Bundle branch block right: number of subjects (25 mg QD, through Week 56): 0
